These results are taken from patent US10577383B2, “Macrocyclic inhibitors of myeloperoxidase” (BRISTOL-MYERS SQUIBB COMPANY, priority 2016, dated 2020).

Data set [1] has as its target T1, myeloperoxidase (Homo sapiens (Human), UniProt P05164). Nature of the data set: MPO Chlorination Assay (APF Assay). The format is biochemical. As to conditions: MPO chlorination activity, 100 mM KPi (pH 7.4), 120 mM NaCl, ten minute preincubation; potency ranges defined in nM. As for the experimental part:
(§1) [formula] where A=minimal Y value (activity level of inhibited sample), B=maximal Y value (activity level of uninhibited sample), C=Log IC50, D=Hill Slope, x=concentration of inhibitor. MPO Chlorination Assay (APF Assay) MPO chlorination activity was measured in 100 mM KPi (pH 7.4) by utilizing the non-fluorescent reagent Aminophenyl fluorescein (APF, Invitrogen Cat. #A36003). APF is cleaved by (—OCl) to yield the fluorescent compound fluorescein. Reactions were carried out in 50 μL total volume by adding a 25 μL mixture of 200 pM myeloperoxidase and 120 mM NaCl to 100 nL inhibitor in 100% DMSO in a 384 well, non-binding surface clear bottom plate (Corning #3655). Enzyme, inhibitor, and chloride were preincubated for ten minutes at room temperature.
After the ten minute preincubation, 25 μL of an APF mixture containing […], 120 mM NaCl and 10 μM H2O2 was added to the plate using the internal dispensing system of a Hammatsu FDSS 6000. Kinetic determinations were carried out immediately on the FDSS 6000 (3 minute kinetic read, 1 read every second, ex: 485 nm, em: 535 nm). IC50 values for inhibitors were calculated by taking the slope of the linear portion of the kinetic measurement (20 seconds to 80-120 secs).
(§2) IC50 values were calculated by determining the slope of the linear portion of the kinetic trace (180-540 secs), and using that calculated slope to determine % inhibition occurring at each concentration of inhibitor using the following equation:
[formula] where A=minimal Y value (activity level of inhibited sample), B=maximal Y value (activity level of uninhibited sample), C=Log IC50, D=Hill Slope, x=concentration of inhibitor. EPX Bromination Assay

Data set [2] concerns the target T1, myeloperoxidase. Nature of the data set: MPO Peroxidation Assay (Amplex Red Assay). In kind it is biochemical. As to conditions: MPO peroxidation activity, 100 mM KPi (pH 7.4), ten minute preincubation; potency ranges defined in nM. As to the method: MPO Peroxidation Assay (Amplex Red Assay)
MPO peroxidation activity was measured in 100 mM KPi (pH 7.4) by utilizing the non-fluorescent reagent Amplex Red (Invitrogen Cat. #A12222) which can be oxidized to the highly fluorescent resorufin. Amplex Red is oxidized by the peroxidase action of MPO to resorufin. Reactions were carried out in 50 μL total volume by adding a 25 μL mixture of 200 pM myeloperoxidase and 40 nM H2O2 (Sigma #349887) to 100 nL inhibitor in 100% DMSO in a 384 well Perkin Elmer Optiplate. Enzyme and compound were preincubated for ten minutes at room temperature.
After the ten minute preincubation, 25 μL of an Amplex Red mixture containing 200 μM Amplex Red and 10 mM H2O2 was added to the plate. Kinetic determinations were carried out immediately on a Perkin Elmer Envision (15 minute kinetic read, Ex: 535 nm, Em: 590 nm).
as §2, §1

Like-named read-outs stand apart in the source and are kept apart here.

T1 sequence (P05164 49-745): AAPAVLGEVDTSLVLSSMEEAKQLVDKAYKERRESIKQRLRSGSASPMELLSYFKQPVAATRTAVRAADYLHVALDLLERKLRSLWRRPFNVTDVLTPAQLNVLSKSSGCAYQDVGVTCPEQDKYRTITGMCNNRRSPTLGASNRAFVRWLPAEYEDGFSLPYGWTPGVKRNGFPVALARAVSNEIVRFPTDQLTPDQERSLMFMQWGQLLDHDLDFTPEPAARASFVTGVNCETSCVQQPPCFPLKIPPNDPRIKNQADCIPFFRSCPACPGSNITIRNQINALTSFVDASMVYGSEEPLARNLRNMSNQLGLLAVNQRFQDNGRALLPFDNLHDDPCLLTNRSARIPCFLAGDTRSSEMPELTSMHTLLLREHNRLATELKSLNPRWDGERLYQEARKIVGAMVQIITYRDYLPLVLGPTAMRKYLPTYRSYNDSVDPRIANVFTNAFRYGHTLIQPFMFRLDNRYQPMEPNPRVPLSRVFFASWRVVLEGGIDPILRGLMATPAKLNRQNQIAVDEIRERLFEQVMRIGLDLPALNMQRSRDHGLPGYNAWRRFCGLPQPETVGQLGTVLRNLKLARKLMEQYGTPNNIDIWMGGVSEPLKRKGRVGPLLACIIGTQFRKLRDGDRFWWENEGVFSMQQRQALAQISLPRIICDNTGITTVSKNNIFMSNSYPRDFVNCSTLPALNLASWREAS

In the case of `CC(C)(C)OC(=O)N(C/C=C(\I)c1cc(NC(c2ccccc2)(c2ccccc2)c2ccccc2)nc2c1nnn2C(c1ccccc1)(c1ccccc1)c1ccccc1)CCCOc1cccc(Cn2cc(B3OC(C)(C)C(C)(C)O3)cn2)c1`, the ring closure, isolated yield (the molecule shown is the open-chain precursor, cc_pd bond, 15-membered ring, PdCl2(dppf)-CH2Cl2/K2CO3, dioxane/H2O, 1.04 mM, 85.0 °C) was 39.1%.

Where the note is “the molecule shown is the open-chain precursor, cc_pd bond, 15-membered ring, PdCl2(dppf)-CH2Cl2/K2CO3, dioxane/H2O, 1.0 mM, 85.0 °C”, `CC(C)(C)OC(=O)N(C/C=C(\I)c1cc(NC(c2ccccc2)(c2ccccc2)c2ccccc2)nc2c1nnn2C(c1ccccc1)(c1ccccc1)c1ccccc1)[C@H]1C[C@H](Cc2ccccc2)[C@H](Oc2cccc(Cn3cc(B4OC(C)(C)C(C)(C)O4)cn3)c2)C1` had a ring closure, isolated yield of 45%.

For `CC(C)(C)OC(=O)N1CC=C(c2cc(N)nc3[nH]nnc23)c2cnn(c2)Cc2cccc(c2)O[C@@H]2CC13CCC2(c1ccccc1)CC3`, where the note is “from CC(C)(C)OC(=O)N(C/C=C(\c1cnn(Cc2cccc(O)c2)c1)c1cc(N)nc2[nH]nnc12)C12CCC(c3ccccc3)(CC1)[C@@H](O)C2, ether bond, 15-membered ring, cyanomethylenetributylphosphorane, toluene, 5.0 mM, 100.0 °C”, the ring closure, isolated yield was 85%.

Where the note is “from OCc1cccc(CNCCC(c2cnn(Cc3cccc(O)c3)c2)c2cc(NC(c3ccccc3)(c3ccccc3)c3ccccc3)nc3c2nnn3C(c2ccccc2)(c2ccccc2)c2ccccc2)c1, ether bond, 17-membered ring, PPh3/DIAD, THF”, `c1ccc(C(Nc2cc(C3CCNCc4cccc(c4)COc4cccc(c4)Cn4cc3cn4)c3nnn(C(c4ccccc4)(c4ccccc4)c4ccccc4)c3n2)(c2ccccc2)c2ccccc2)cc1` (centres unmarked) displayed a ring closure, isolated yield of 94%.

One may read the IC50 as the point on the concentration scale where inhibition reaches its midpoint. For `Nc1cc(C2CCNCc3ccc(F)c(c3)COc3ccc(F)c(c3)Cn3cc2cn3)c2nn[nH]c2n1` (centres unmarked) [Example 24, 7-{15,22-Difluoro-18-oxa-3,4,10-triazatetracyclo[17.3.1.1^3,^6.1^12,^1^6]pentacosa-1(23),4,6(25),12,14,16(24),19,21-octaen-7-yl}-3H-[1,2,3]triazolo[4,5-b]pyridin-5-amine], the IC50 against myeloperoxidase [1] lay within 1 to 100 nM; against myeloperoxidase [2], 101 to 999 nM.

Take `Nc1cc([C@@H]2CCN[C@H]3C[C@H](Cc4ccccc4)[C@@H](C3)Oc3cccc(c3)Cn3cc2cn3)c2nn[nH]c2n1` [Example 25, 7-[(3R,4S,6S,10S)-4-Benzyl-2-oxa-7,13,14-triazatetracyclo[14.3.1.1^3,^6.1^11,^1^4]docosa-1(19),11(21),12,16(20),17-pentaen-10-yl]-3H-[1,2,3]triazolo[4,5-b]pyridin-5-amine]: the IC50 on myeloperoxidase [1] and against myeloperoxidase [2] was 1 to 100 nM throughout.

With `Nc1cc([C@H]2CCN[C@H]3C[C@H](Cc4ccccc4)[C@@H](C3)Oc3cccc(c3)Cn3cc2cn3)c2nn[nH]c2n1` [Example 26, 7-[(3R,4S,6S,10R)-4-Benzyl-2-oxa-7,13,14-triazatetracyclo[14.3.1.1^3,^6.1^11,^1^4]docosa-1(19),11(21),12,16(20),17-pentaen-10-yl]-3H-[1,2,3]triazolo[4,5-b]pyridin-5-amine], the IC50 against myeloperoxidase [1] and against myeloperoxidase [2] was 1 to 100 nM in each case.

On to `Nc1cc(C2CCNC34CCC(c5ccccc5)(CC3)[C@H](C4)Oc3cccc(c3)Cn3cc2cn3)c2nn[nH]c2n1` (stereo partly drawn) [Example 27, 7-[(17S)-18-Phenyl-16-oxa-2,8,9-triazapentacyclo[16.2.2.1^1,^1^7.1^6,^9.1^11,^1^5]pentacosa-6(25),7,11(24),12,14-pentaen-5-yl]-3H-[1,2,3]triazolo[4,5-b]pyridin-5-amine], for which the IC50 on myeloperoxidase [1] and on myeloperoxidase [2] was 1 to 100 nM throughout.

For the compound `Nc1cc(C2CCNC34CCC(c5ccccc5)(CC3)[C@@H](C4)Oc3cccc(c3)Cn3cc2cn3)c2nn[nH]c2n1` (stereo partly drawn) [Example 28, 7-[(17R)-18-Phenyl-16-oxa-2,8,9-triazapentacyclo[16.2.2.1^1,^1^7.1^6,^9.1^11,^1^5]pentacosa-6(25),7,11(24),12,14-pentaen-5-yl]-3H-[1,2,3]triazolo[4,5-b]pyridin-5-amine], the values for the IC50 against myeloperoxidase [1] and against myeloperoxidase [2] were 1 to 100 nM and 1000 to 10000 nM, respectively.

For `Nc1cc(C2CCNC34CCC(c5ccccc5)(CC3)[C@H](C4)Oc3cccc(c3)CCn3cc2cn3)c2nn[nH]c2n1` (stereo partly drawn) [Example 29, 7-[(18S)-19-Phenyl-17-oxa-2,8,9-triazapentacyclo[17.2.2.1^1,^1^8.1^6,^9.1^12,^1^6]hexacosa-6(26),7,12(25),13,15-pentaen-5-yl]-3H-[1,2,3]triazolo[4,5-b]pyridin-5-amine], the IC50 on myeloperoxidase [1] and against myeloperoxidase [2] was 1 to 100 nM in each case.

Regarding `Nc1cc(C2CCNCCc3cccc(c3)-c3cccc(c3)Cn3cc2cn3)c2nn[nH]c2n1` (centres unmarked) [Example 30, 7-{8,9,15-triazatetracyclo[16.3.1.1^2,^6.1^8,^11]tetracosa-1(22),2,4,6(24),9,11(23),18,20-octaen-12-yl}-3H-[1,2,3]triazolo[4,5-b]pyridin-5-amine], the IC50 at myeloperoxidase [1] was 1 to 100 nM; on myeloperoxidase [2], 101 to 999 nM.

With `Nc1cc(C2CCN3C[C@H](Cc4ccccc4)[C@@H](C3)Oc3cccc(c3)Cn3cc2cn3)c2nn[nH]c2n1` (stereo partly drawn) [Example 31, 7-[(3S,4S)-4-Benzyl-2-oxa-6,12,13-triazatetracyclo[13.3.1.1^3,^6.1^1^0,^13]henicosa-1(18),10(20),11,15(19),16-pentaen-9-yl]-3H-[1,2,3]triazolo[4,5-b]pyridin-5-amine], the IC50 at myeloperoxidase [1] lay within 1 to 100 nM; against myeloperoxidase [2] it was 101 to 999 nM.

In the case of `Nc1cc(C2CCN[C@H]3CC[C@@H](COc4cccc(c4)Cn4cc2cn4)C3)c2nn[nH]c2n1` (stereo partly drawn) [Example 32, 7-[(11S,14R)-16-Oxa-3,4,10-triazatetracyclo[15.3.1.1^3,^6.1^11,^1^4]tricosa-1(21),4,6(23),17,19-pentaen-7-yl]-3H-[1,2,3]triazolo[4,5-b]pyridin-5-amine], the IC50 against myeloperoxidase [1] was 1 to 100 nM; on myeloperoxidase [2], 101 to 999 nM.

For `Nc1cc(C2CCNCC(=O)N(CCc3ccccc3)Cc3cccc(c3)Cn3cc2cn3)c2nn[nH]c2n1` (centres unmarked) [Example 33, 7-{5-Amino-3H-[1,2,3]triazolo[4,5-b]pyridin-7-yl}-13-(2-phenylethyl)-3,4,10,13-tetraazatricyclo[13.3.1.1^3,^6]icosa-1(19),4,6(20),15,17-pentaen-12-one], the IC50 was 1 to 100 nM on myeloperoxidase [1] and 101 to 999 nM against myeloperoxidase [2].

With `Nc1cc(C2CCN3C[C@H](COc4cccc(c4)Cn4cc2cn4)[C@@H](c2ccccc2)C3)c2nn[nH]c2n1` (stereo partly drawn) [Example 34, 7-[(12S,13R)-12-Phenyl-15-oxa-3,4,10-triazatetracyclo[14.3.1.1^3,^6.1^1^0,^13]docosa-1(20),4,6(22),16,18-pentaen-7-yl]-3H-[1,2,3]triazolo[4,5-b]pyridin-5-amine], the results for the IC50 on myeloperoxidase [1] and at myeloperoxidase [2] were 101 to 999 nM and 1000 to 10000 nM, respectively.

`NC(=O)CN1CCc2cccc(c2)Oc2cccc(c2)Cn2cc(cn2)C(c2cc(N)nc3[nH]nnc23)CC1` (centres unmarked) [Example 35, 2-(7-{15-Amino-3H-[1,2,3]triazolo[4,5-b]pyridin-7-yl}-18-oxa-3,4,10-triazatetracyclo[17.3.1.1^3,^6.1^13,^17]pentacosa-1(23),4,6(25),13,15,17(24),19,21-octaen-10-yl)acetamide]: the concentration for half-maximal inhibition (IC50) on myeloperoxidase [1] and on myeloperoxidase [2] was 1000 to 10000 nM throughout.

With `Nc1cc(C2CCNCC(F)(F)c3cccc(c3)Oc3cccc(c3)Cn3cc2cn3)c2nn[nH]c2n1` (centres unmarked) [Example 36, 7-{12,12-Difluoro-18-oxa-3,4,10-triazatetracyclo[17.3.1.1^3,^6.1^13,^1^7]pentacosa-1(23),4,6(25),13,15,17(24),19,21-octaen-7-yl}-3H-[1,2,3]triazolo[4,5-b]pyridin-5-amine], the values for the 50% inhibitory concentration (IC50) against myeloperoxidase [1] and at myeloperoxidase [2] were 1 to 100 nM and 1000 to 10000 nM, respectively.

In the case of `COCCN1CCc2cccc(c2)Oc2cccc(c2)Cn2cc(cn2)C(c2cc(N)nc3[nH]nnc23)CC1` (centres unmarked) [Example 37, 7-[10-(2-Methoxyethyl)-18-oxa-3,4,10-triazatetracyclo[17.3.1.1^3,^6.1^13,^1^7]pentacosa-1(23),4,6(25),13,15,17(24),19,21-octaen-7-yl]-3H-[1,2,3]triazolo[4,5-b]pyridin-5-amine], the IC50 lay within 101 to 999 nM on myeloperoxidase [1] and 1000 to 10000 nM against myeloperoxidase [2].
